Assay [1] has as its system SD rats. The assay can be described thus: Idiopathic pulmonary fibrosis (IPF) model, bleomycin-induced. The class given is in vivo, rat. Conditions: pirfenidone 120 mg/kg intragastric, 28 days.
Description: 50 Adult SD rats (Zhejiang Experimental Animal Center (Animal Production License Number: SCXK (Zhejiang, Chi-00, half male and half female were kept at 21-26° C. with 40-70% relative humidity, with free access to food and water.
After 7 days of adaptive feeding, the rats were randomly divided into 5 groups: sham operation group, idiopathic pulmonary fibrosis model group, Monte gavage administrating group, Monte inhalation administrating group and pirfenidone control group.
The rats were anaesthetized and placed on an operating table in the supine position, exposing the trachea. 150 μL of Bleomycin (Bleomycin Hydrochloride for Injection, Zhejiang Hisun Pharmaceutical Co. Ltd, China) in saline solution was injected into the trachea through the gap between the tracheal cartilage at 5 mg/kg. (The sham-operation group were given an equal volume of normal saline.)
The rats were lifted vertically after administration and were rotated to allow the drug to evenly disperse. Once the rats recovered, after approximately 7 days, they were administrated different drugs according to Table 1 below. […]
For assay [2], the system named is BALB/c mice. The assay can be described thus: Mouse ear swelling model (xylene induced). The class given is in vivo. Conditions: cream 5 mg/g, 500 μg/mouse on right ear, 40 minutes. On the procedure:
35 healthy male BALB/c mice of 6-8 weeks of age and average body weight of 18-25 g supplied by Changzhou Cvens Experimental Animal Co. Ltd. were housed and cared for about for 1 week prior to the experiment. The housing temperature was 25-27° C. with 74% humidity, with alternating 12 hour periods of light and darkness, and free access to food and water. The mice were randomly divided into 4 groups as described in Table 1 below, with 5 mice in each group.
The left ear of each mouse was used as autologous control. 20 μL of xylene (Shanghai Aladdin Bio-Chem Technology Co., Ltd., Shanghai, China) was applied to the right ear of each mouse, both inside and outside. The ear started to swell in about 4 minutes. Then, different amounts of each study treatments or vehicles (as described in Table 1 below) were applied to the right ears in each group. The mice were put back into their cages.
The mice were sacrificed by cervical dislocation after 40 minutes. The left and right ears were cut off. A skin pouch (Electron Microscopy Sciences, Hatfield, USA) with diameter of 8 mm was used to take a piece of ear from the same site of both ears. The weights were recorded the weights and the swelling rates were calculated as follows:
Swelling rate=(right ear weight−left ear weight)/left ear weight×100%

The source of these data is patent US20220105082A1, “NEW FORMULATIONS CONTAINING LEUKOTRIENE RECEPTOR ANTAGONISTS” (JIANGYIN MUCOCARE PHARMACEUTICAL CO., LTD., priority 2019, published 2022).

`Cc1ccc(=O)n(-c2ccccc2)c1` [Postitive Control, pirfenidone] displayed an HYP in assay [1] (lung) of 755.49 ± 66.64 μg/g wet weight. The IL-10 in assay [1] (tissue) turned out to be 43.52 ± 4.30 pg/mg protein.
For `COc1cc(C(=O)NS(=O)(=O)c2ccccc2C)ccc1Cc1cn(C)c2ccc(NC(=O)OC3CCCC3)cc12` [zafirlukast], the xylene induced swelling entry in assay [2] is on record as “significantly reduce”.
